Assay results as given in ChEMBL document CHEMBL1697781, “Assessment of the health effects of chemicals in humans: II. Construction of an adverse effects database for QSAR modeling” (Curr Drug Discov Technol, 2004).

Key:
Conditions in all cases: human; call rule not given here
Hepatotoxicity [1] = experiment: FDA HLAED, liver enzyme composite activity
Hepatotoxicity [2] = experiment: FDA HLAED, alkaline phosphatase increase
Hepatotoxicity [3] = experiment: FDA HLAED, serum glutamic oxaloacetic transaminase (SGOT) increase
Hepatotoxicity [4] = experiment: FDA HLAED, serum glutamic pyruvic transaminase (SGPT) increase
Hepatotoxicity [5] = experiment: FDA HLAED, lactate dehydrogenase (LDH) increase
Hepatotoxicity [6] = experiment: FDA HLAED, gamma-glutamyl transferase (GGT) increase
Throughout, for GGT Increase - Index Value: reference of the scale not given here.
Throughout, for LDH Increase - Index Value: reference of the scale not given here.

| SMILES | Composite Activity - Active (Hepatotoxicity [1]) | Composite Activity - Marginal (Hepatotoxicity [1]) | Composite Activity - Score (Hepatotoxicity [1]) | Alkaline Phosphatase Increase - Activity Score (Hepatotoxicity [2]) | Alkaline Phosphatase Increase - Index Value (Hepatotoxicity [2]) | Alkaline Phosphatase Increase - Number of Reports (Hepatotoxicity [2]) | SGOT Increase - Activity Score (Hepatotoxicity [3]) | SGOT Increase - Index Value (Hepatotoxicity [3]) | SGOT Increase - Number of Reports (Hepatotoxicity [3]) | SGPT Increase - Activity Score (Hepatotoxicity [4]) | SGPT Increase - Index Value (Hepatotoxicity [4]) | SGPT Increase - Number of Reports (Hepatotoxicity [4]) | LDH Increase - Activity Score (Hepatotoxicity [5]) | LDH Increase - Index Value (Hepatotoxicity [5]) | LDH Increase - Number of Reports (Hepatotoxicity [5]) | GGT Increase - Activity Score (Hepatotoxicity [6]) | GGT Increase - Index Value (Hepatotoxicity [6]) | GGT Increase - Number of Reports (Hepatotoxicity [6]) |
| --- | --- | --- | --- | --- | --- | --- | --- | --- | --- | --- | --- | --- | --- | --- | --- | --- | --- | --- |
| CC1Cc2ccccc2N1NC(=O)c1ccc(Cl)c(S(N)(=O)=O)c1 (stereo not drawn) [INDAPAMIDE] | 0 | 0 | Inactive | Inactive | 0.5 | < 4 | Inactive | 1 | < 4 | Inactive | 0.5 | < 4 | Inactive | 0.5 | < 4 | Inactive | 0 | < 4 |
| CC(=O)N(CC(O)CN(C(C)=O)c1c(I)c(C(=O)NCC(O)CO)c(I)c(C(=O)NCC(O)CO)c1I)c1c(I)c(C(=O)NCC(O)CO)c(I)c(C(=O)NCC(O)CO)c1I (stereo not drawn) [IODIXANOL] | 0 | 0 | Inactive | Inactive | 0 | < 4 | Inactive | 0 | < 4 | Inactive | 0 | < 4 | Inactive | 0 | < 4 | Inactive | 0 | < 4 |
| CC(=O)N(CC(O)CO)c1c(I)c(C(=O)NCC(O)CO)c(I)c(C(=O)NCC(O)CO)c1I (stereo not drawn) [IOHEXOL] | 0 | 0 | Inactive | Inactive | 144.9 | < 4 | Inactive | 144.9 | < 4 | Inactive | 0 | < 4 | Inactive | 144.9 | < 4 | Inactive | 0 | < 4 |
| C[C@H](O)C(=O)Nc1c(I)c(C(=O)NC(CO)CO)c(I)c(C(=O)NC(CO)CO)c1I [IOPAMIDOL] | 1 | 0 | Inactive | Inactive | 0 | < 4 | Inactive | 526.3 | < 4 | Inactive | 0 | < 4 | Active | 1579 | < 4 | Inactive | 0 | < 4 |
| COCC(=O)Nc1c(I)c(C(=O)NCC(O)CO)c(I)c(C(=O)N(C)CC(O)CO)c1I (stereo not drawn) [IOPROMIDE] | 0 | 0 | Inactive | Inactive | 0 | < 4 | Inactive | 0 | < 4 | Inactive | 0 | < 4 | Inactive | 0 | < 4 | Inactive | 0 | < 4 |
| O=C(NCC(O)CO)c1c(I)c(C(=O)NCC(O)CO)c(I)c(N(CCO)C(=O)CO)c1I (stereo not drawn) [IOVERSOL] | 0 | 0 | Inactive | Inactive | 0 | < 4 | Inactive | 0 | < 4 | Inactive | 0 | < 4 | Inactive | 400 | < 4 | Inactive | 0 | < 4 |
